In US11891388B2 (Incyte Corporation, priority 2016, dated 2024):

Each compound was assayed against HPK1 (Homo sapiens, UniProt Q92918) (assay: HPK1 Kinase Binding Assay). Details: LanthaScreen tracer 222 binding, active HPK1, one hour incubation at 25° C.
Experimental: A stock solution of 1 mM test compound was prepared in DMSO. The compound plate was prepared by 3-fold and 11-point serial dilutions. 0.1 μL of the compound in DMSO was transferred from the compound plate to the white 384 well polystyrene plates. The assay buffer contained 50 mM HEPES, pH 7.5, 0.01% Tween-20, 5 mM MgCl2, 0.01% BSA, and 5 mM DTT. 5 μl of 4 nM active HPK1 (SignalChem M23-11G) prepared in the buffer was added to the plate. The enzyme concentration given was based on the given stock concentration reported by the vender. 5 μl of 18 nM tracer 222 (ThermoFisher PV6121) and 4 nM LanthaScreen Eu-Anti GST antibody (ThermoFisher PV5595) were added. After one hour incubation at 25° C., the plates were read on a PHERAstar FS plate reader (BMG Labtech). Ki values were determined.

Ki [nM] | SMILES
100 to 500 | CN1CCN(c2ccc(-c3n[nH]c4ccc(-c5cccc6c5OCC6)nc34)cc2)CC1 [Example 15, 5-(2,3-Dihydrobenzofuran-7-yl)-3-(4-(4-methylpiperazin-1-yl)phenyl)-1H-pyrazolo[4,3-b]pyridine]
500 to 10000 | CN1CCN(c2ccc(-c3n[nH]c4ccc(-c5cccc(N(C)C)c5)nc34)cc2)CC1 [Example 18, N,N-Dimethyl-3-(3-(4-(4-methylpiperazin-1-yl)phenyl)-1H-pyrazolo[4,3-b]pyridin-5-yl)aniline]
500 to 10000 | Fc1ccccc1-c1ccc2[nH]nc(-c3ccccc3)c2n1 [Example 51, 5-(2-Fluorophenyl)-3-phenyl-1H-pyrazolo[4,3-b]pyridine]
100 to 500 | CCc1cn2cccc(-c3ccc4[nH]nc(-c5ccc(N6CCN(C)CC6)cc5)c4n3)c2n1 [Example 45, 5-(2-Ethylimidazo[1,2-a]pyridin-8-yl)-3-(4-(4-methylpiperazin-1-yl)phenyl)-1H-pyrazolo[4,3-b]pyridine]
100 to 500 | CN1CCN(c2ccc(-c3n[nH]c4ccc(-c5ccncc5)nc34)cc2)CC1 [Example 25, 3-(4-(4-Methylpiperazin-1-yl)phenyl)-5-(pyridin-4-yl)-1H-pyrazolo[4,3-b]pyridine]
100 to 500 | CNC(=O)c1ccc(-c2n[nH]c3ccc(-c4ccccc4F)nc23)cc1 [Example 53, 4-(5-(2-Fluorophenyl)-1H-pyrazolo[4,3-b]pyridin-3-yl)-N-methylbenzamide]
100 to 500 | CN1CCN(c2ccc(-c3n[nH]c4ccc(-c5ccccc5-c5ccccc5)nc34)cc2)CC1 [Example 22, 5-(Biphenyl-2-yl)-3-(4-(4-methylpiperazin-1-yl)phenyl)-1H-pyrazolo[4,3-b]pyridine]
100 to 500 | CN1CCN(c2ccc(-c3n[nH]c4ccc(-c5cccc6ncccc56)nc34)cc2)CC1 [Example 36, 5-(3-(4-(4-Methylpiperazin-1-yl)phenyl)-1H-pyrazolo[4,3-b]pyridin-5-yl)quinoline]
100 to 500 | CN1CCN(c2ccc(-c3n[nH]c4ccc(-c5cccc6c5ccn6C)nc34)cc2)CC1 [Example 39, 5-(1-Methyl-1H-indol-4-yl)-3-(4-(4-methylpiperazin-1-yl)phenyl)-1H-pyrazolo[4,3-b]pyridine]
100 to 500 | COc1ccccc1-c1ccc2[nH]nc(-c3ccc(N4CCN(C)CC4)cc3)c2n1 [Example 2]
500 to 10000 | Fc1ccccc1-c1ccc2[nH]nc(-c3ccncc3)c2n1 [Example 52, 5-(2-Fluorophenyl)-3-(pyridin-4-yl)-1H-pyrazolo[4,3-b]pyridine]
100 to 500 | CN1CCN(c2ccc(-c3n[nH]c4ccc(-c5ccccc5O)nc34)cc2)CC1 [Example 14, 2-(3-(4-(4-Methylpiperazin-1-yl)phenyl)-1H-pyrazolo[4,3-b]pyridin-5-yl)phenol]
100 to 500 | Fc1ccccc1-c1ccc2[nH]nc(-c3cnn(C4CCNCC4)c3)c2n1 [Example 58, 5-(2-Fluorophenyl)-3-(1-(piperidin-4-yl)-1H-pyrazol-4-yl)-1H-pyrazolo[4,3-b]pyridine]
100 to 500 | CN1CCN(c2ccc(-c3n[nH]c4ccc(-c5cccc6c5OCCO6)nc34)cc2)CC1 [Example 16, 5-(2,3-Dihydrobenzo[b][1,4]dioxin-5-yl)-3-(4-(4-methylpiperazin-1-yl)phenyl)-1H-pyrazolo[4,3-b]pyridine]
500 to 10000 | CC(=O)Nc1ccccc1-c1ccc2[nH]nc(-c3ccc(N4CCN(C)CC4)cc3)c2n1 [Example 21, N-(2-(3-(4-(4-Methylpiperazin-1-yl)phenyl)-1H-pyrazolo[4,3-b]pyridin-5-yl)phenyl)acetamide]
100 to 500 | CN1CCN(c2ccc(-c3n[nH]c4ccc(-c5cccc6c5CC(=O)N6)nc34)cc2)CC1 [Example 38, 4-(3-(4-(4-Methylpiperazin-1-yl)phenyl)-1H-pyrazolo[4,3-b]pyridin-5-yl)indolin-2-one]
100 to 500 | Cn1cc(-c2n[nH]c3ccc(-c4ccccc4F)nc23)cn1 [Example 54]
500 to 10000 | CN1CCN(c2ccc(-c3n[nH]c4ccc(-c5ccc(=O)n(C)c5)nc34)cc2)CC1 [Example 30, 1-Methyl-5-(3-(4-(4-methylpiperazin-1-yl)phenyl)-1H-pyrazolo[4,3-b]pyridin-5-yl)pyridin-2(1H)-one]
500 to 10000 | CS(=O)(=O)N1CCC(n2cc(-c3n[nH]c4ccc(-c5ccccc5F)nc34)cn2)CC1 [Example 59, 5-(2-Fluorophenyl)-3-(1-(1-(methylsulfonyl)piperidin-4-yl)-1H-pyrazol-4-yl)-1H-pyrazolo[4,3-b]pyridine]
500 to 10000 | COC(=O)c1ccccc1-c1ccc2[nH]nc(-c3ccc(N4CCN(C)CC4)cc3)c2n1 [Example 20, Methyl 2-(3-(4-(4-methylpiperazin-1-yl)phenyl)-1H-pyrazolo[4,3-b]pyridin-5-yl)benzoate]
500 to 10000 | O=C(Nc1ccccc1)c1ccc(-c2n[nH]c3ccc(-c4ccccc4F)nc23)cc1 [Example 57, 4-(5-(2-Fluorophenyl)-1H-pyrazolo[4,3-b]pyridin-3-yl)-N-phenylbenzamide]
100 to 500 | CN1CCN(c2ccc(-c3n[nH]c4ccc(-c5ccccc5)nc34)cc2)CC1 [Example 1, 3-(4-(4-Methylpiperazin-1-yl)phenyl)-5-phenyl-1H-pyrazolo[4,3-b]pyridine]
500 to 10000 | CC(=O)N1CCC(n2cc(-c3n[nH]c4ccc(-c5ccccc5F)nc34)cn2)CC1 [Example 60, 1-(4-(4-(5-(2-Fluorophenyl)-1H-pyrazolo[4,3-b]pyridin-3-yl)-1H-pyrazol-1-yl)piperidin-1-yl)ethanone]
100 to 500 | CNC(=O)c1cccc(-c2ccc3[nH]nc(-c4ccc(N5CCN(C)CC5)cc4)c3n2)c1 [Example 17, N-Methyl-3-(3-(4-(4-methylpiperazin-1-yl)phenyl)-1H-pyrazolo[4,3-b]pyridin-5-yl)benzamide]
500 to 10000 | CN1CCN(C(=O)c2ccc(-c3n[nH]c4ccc(-c5ccccc5F)nc34)cc2)CC1 [Example 56, (4-(5-(2-Fluorophenyl)-1H-pyrazolo[4,3-b]pyridin-3-yl)phenyl)(4-methylpiperazin-1-yl)methanone]

SMILES | Ki [nM]
CN1CCN(c2ccc(-c3n[nH]c4ccc(-c5cccc6c5CCC6NCCO)nc34)cc2)CC1 (centres unmarked) [Example 49, 2-(4-(3-(4-(4-Methylpiperazin-1-yl)phenyl)-1H-pyrazolo[4,3-b]pyridin-5-yl)-2,3-dihydro-1H-inden-1-ylamino)ethanol] | ≤ 100
